This passage reports IC50 and GI50 results from US20260216195A1, “MUTANT-SELECTIVE EGFR INHIBITORS” (Dana-Farber Cancer Institute, Inc., priority 2023, published 2026).

Assay [1] concerns the target EGFR L858R/T790M (Homo sapiens, UniProt P00533, L858R/T790M). Put plainly: HTRF-based EGFR biochemical assay, L858R/T790M enzyme. The conditions noted are these: L858R/T790M 0.02 nM enzyme, 100 μM ATP, 30 min preincubation, read-out: LRTM enzyme IC50. The procedure:
(§1) EGFR biochemical activity measurements were carried out using the homogeneous time-resolved fluorescence (HTRF) assay (Cisbio). Inhibitors and DMSO normalizations were first dispensed to empty black low-volume 384-well plates (Corning) with D300 digital liquid dispenser (HP). All reactions were carried out at room temperature and solutions were added to plates with a Multidrop Combi Reagent Dispenser (ThermoFisher). The reaction mixture (10 μL final volume) contained 1 μM tyrosine kinase peptide-biotin substrate and mutant EGFR in a reaction buffer (50 mM HEPES pH 7.0, 5 mM MgCl2,1 mM MnCl2, 0.01% BSA, 2 mM TCEP, 0.1 mM NaVO4). Enzyme concentrations were adjusted to accommodate varying kinase activities (L858R 0.1 nM, L858R/T790M 0.02 nM). Enzyme reaction solution (2× concentrations, 5 μL) was added to 384-well plates containing compounds and incubated for 30 mins. Enzyme reactions were initiated with the addition of 5 μL of ATP to a final concentration of 100 μM and reacted for 20 mins. Reactions were quenched with the addition of 10 μL of phospho-tyrosine antibody-Europium(III) cryptate (1-to-180 volume ratio) and Streptavidin-XL665 (46.7 nM) in EDTA-containing detection buffer, then incubated at room temperature for 1 hour, and read with a PHERAstar plate reader (excitation=337 nm, emission=620 nm and 665 nm). IC50 values were determined by inhibition curves (11-point curves from 1.0 μM to 0.130 nM or 23-point curves from 1.0 μM to […]) in triplicate with non-linear least squares fit in GraphPad Prism 7.0d. The data obtained are shown in Table 2 below where “−” is indicative of an IC50 value of >5 nM “+” is indicative of an IC50 value of <5 nM, “++” is indicative of an IC50 value of <1 nM, and “+++” is indicative of an IC50 value of <0.5 nM.

In assay [2] the target is EGFR L858R (Homo sapiens, UniProt P00533, L858R). Kind of assay: HTRF-based EGFR biochemical assay, L858R enzyme. As to conditions: L858R 0.1 nM enzyme, 100 μM ATP, 30 min preincubation, read-out: LR enzyme IC50. The procedure: as §1
Chain of EGFR L858R (P00533 25-1210 L858R): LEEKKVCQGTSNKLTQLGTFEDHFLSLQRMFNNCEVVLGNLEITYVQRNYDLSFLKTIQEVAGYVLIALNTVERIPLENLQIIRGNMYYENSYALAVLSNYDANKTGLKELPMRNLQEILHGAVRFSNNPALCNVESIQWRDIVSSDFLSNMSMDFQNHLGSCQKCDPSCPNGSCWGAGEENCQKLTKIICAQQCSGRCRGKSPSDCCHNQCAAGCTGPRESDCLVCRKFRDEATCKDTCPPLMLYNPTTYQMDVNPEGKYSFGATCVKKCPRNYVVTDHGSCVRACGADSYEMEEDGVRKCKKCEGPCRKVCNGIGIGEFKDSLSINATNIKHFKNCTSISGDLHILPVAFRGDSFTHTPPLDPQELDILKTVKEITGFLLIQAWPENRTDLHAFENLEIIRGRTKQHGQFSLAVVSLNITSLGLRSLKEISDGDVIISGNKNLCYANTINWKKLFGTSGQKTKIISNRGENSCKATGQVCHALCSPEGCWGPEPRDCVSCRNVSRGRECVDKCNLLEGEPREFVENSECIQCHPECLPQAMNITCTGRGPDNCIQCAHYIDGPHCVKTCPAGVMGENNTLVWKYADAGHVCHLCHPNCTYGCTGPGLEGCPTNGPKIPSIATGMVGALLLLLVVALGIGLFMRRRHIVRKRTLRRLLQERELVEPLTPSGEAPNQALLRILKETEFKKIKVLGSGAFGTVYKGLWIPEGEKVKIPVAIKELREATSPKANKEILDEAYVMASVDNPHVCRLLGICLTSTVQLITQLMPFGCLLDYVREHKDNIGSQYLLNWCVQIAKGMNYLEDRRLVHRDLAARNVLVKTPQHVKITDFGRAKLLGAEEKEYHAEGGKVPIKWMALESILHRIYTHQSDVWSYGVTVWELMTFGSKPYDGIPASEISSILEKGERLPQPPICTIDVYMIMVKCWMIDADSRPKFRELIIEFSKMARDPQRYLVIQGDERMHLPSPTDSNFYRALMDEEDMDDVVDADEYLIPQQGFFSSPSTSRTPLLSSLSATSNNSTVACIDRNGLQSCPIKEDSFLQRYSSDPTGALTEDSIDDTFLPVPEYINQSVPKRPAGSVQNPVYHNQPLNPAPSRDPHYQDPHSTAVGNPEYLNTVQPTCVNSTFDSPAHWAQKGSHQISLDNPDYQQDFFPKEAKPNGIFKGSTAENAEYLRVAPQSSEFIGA
Assay [3] has as its target EGFR mutant L858R Ba/F3 cells (Homo sapiens, UniProt P00533, L858R, cells depend on it). Kind of assay: Ba/F3 cell proliferation (Cell Titer Glo), EGFR L858R. Format: cell-based, murine. The conditions noted are these: 72 hours, read-out: BaF3 cell L858R IC50. The source says:
(§2) The EGFR mutant L858R and L858R/T790M Ba/F3 cells have been previously described (Zhou, W., et al. Nature 462, 2009, 1070-1074). All cell lines were maintained in RPMI 1640 (Cellgro; Mediatech Inc., Herndon, CA) supplemented with 10% FBS, 100 units/mL penicillin, 100 units/mL streptomycin. The EGFR 1941R mutation was introduced via site directed mutagenesis using the Quick Change Site-Directed Mutagenesis kit (Stratagene; La Jolla, CA) according to the manufacturer's instructions. All constructs were confirmed by DNA sequencing. The constructs were shuttled into the retroviral vector JP1540 using the Cre-recombination system (Agilent Technologies, Santa Clara, CA). Ba/F3 cells were then infected with retrovirus per standard protocols, as described previously (Zhou, et al, Nature 2009). Stable clones were obtained by selection in puromycin (2 μg/ml).
(§3) Growth and inhibition of growth was assessed by the Cell Titer Glo assay (Promega, Madison, WI) and was performed according to the manufacturer's instructions. The Cell Titer Glo assay is a luminescence-based method used to determine the number of viable cells based on quantitation of the ATP present, which is directly proportional to the amount of metabolically active cells present. Ba/F3 cells of different EGFR genotypes were exposed to the compounds disclosed herein for 72 hours and the number of cells used per experiment was determined empirically as has been previously established (Zhou, et al., Nature 2009). All experimental points were set up in triplicates in 384-well plates and all experiments were repeated at least three times. […] The curves were fitted using a non-linear regression model with a sigmoidal dose response.

The target in assay [4] is EGFR mutant L858R/T790M Ba/F3 cells (Homo sapiens, UniProt P00533, T790M/L858R, cells depend on it). Put plainly: Ba/F3 cell proliferation (Cell Titer Glo), EGFR L858R/T790M. As to conditions: 72 hours, read-out: BaF3 cell L858R/T790M. The assay is classed as cell-based, murine.
Chain of EGFR mutant L858R/T790M Ba/F3 cells (P00533 whole entry T790M/L858R): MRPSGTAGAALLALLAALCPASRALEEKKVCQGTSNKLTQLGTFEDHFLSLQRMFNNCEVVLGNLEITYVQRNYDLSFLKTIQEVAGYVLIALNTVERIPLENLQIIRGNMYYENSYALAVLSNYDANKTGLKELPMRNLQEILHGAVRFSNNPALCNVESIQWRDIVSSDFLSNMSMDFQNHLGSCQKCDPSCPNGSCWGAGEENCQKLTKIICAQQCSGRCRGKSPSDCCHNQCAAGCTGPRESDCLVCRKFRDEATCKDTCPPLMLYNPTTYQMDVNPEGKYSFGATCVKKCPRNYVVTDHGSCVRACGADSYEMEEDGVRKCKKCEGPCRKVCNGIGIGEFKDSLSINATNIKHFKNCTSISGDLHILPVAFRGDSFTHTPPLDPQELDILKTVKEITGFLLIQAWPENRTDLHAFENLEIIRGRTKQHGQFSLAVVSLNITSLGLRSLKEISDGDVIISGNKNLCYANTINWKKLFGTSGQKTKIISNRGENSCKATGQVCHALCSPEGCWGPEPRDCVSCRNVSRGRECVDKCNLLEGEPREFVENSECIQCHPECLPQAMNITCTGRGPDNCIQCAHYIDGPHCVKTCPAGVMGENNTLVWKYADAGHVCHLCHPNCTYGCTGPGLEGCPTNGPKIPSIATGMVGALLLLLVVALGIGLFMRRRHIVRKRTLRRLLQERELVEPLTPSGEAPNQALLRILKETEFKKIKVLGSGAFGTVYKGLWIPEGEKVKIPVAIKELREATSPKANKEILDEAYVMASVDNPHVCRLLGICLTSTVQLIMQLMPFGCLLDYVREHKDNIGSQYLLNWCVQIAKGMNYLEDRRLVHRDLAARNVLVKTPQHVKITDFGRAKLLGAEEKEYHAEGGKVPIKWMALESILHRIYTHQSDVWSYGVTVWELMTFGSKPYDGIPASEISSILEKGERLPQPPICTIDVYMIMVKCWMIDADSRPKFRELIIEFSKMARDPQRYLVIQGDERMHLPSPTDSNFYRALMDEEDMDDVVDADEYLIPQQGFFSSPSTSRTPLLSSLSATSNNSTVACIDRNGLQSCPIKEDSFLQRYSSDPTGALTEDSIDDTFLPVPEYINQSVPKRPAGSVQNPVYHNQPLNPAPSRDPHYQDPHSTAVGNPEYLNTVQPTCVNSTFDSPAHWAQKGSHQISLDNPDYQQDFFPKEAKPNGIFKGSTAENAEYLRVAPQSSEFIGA
Text: as §2, §3

A value given as a limit tells only on which side of the number the result lay.

Chain of EGFR mutant L858R Ba/F3 cells (P00533 whole entry L858R): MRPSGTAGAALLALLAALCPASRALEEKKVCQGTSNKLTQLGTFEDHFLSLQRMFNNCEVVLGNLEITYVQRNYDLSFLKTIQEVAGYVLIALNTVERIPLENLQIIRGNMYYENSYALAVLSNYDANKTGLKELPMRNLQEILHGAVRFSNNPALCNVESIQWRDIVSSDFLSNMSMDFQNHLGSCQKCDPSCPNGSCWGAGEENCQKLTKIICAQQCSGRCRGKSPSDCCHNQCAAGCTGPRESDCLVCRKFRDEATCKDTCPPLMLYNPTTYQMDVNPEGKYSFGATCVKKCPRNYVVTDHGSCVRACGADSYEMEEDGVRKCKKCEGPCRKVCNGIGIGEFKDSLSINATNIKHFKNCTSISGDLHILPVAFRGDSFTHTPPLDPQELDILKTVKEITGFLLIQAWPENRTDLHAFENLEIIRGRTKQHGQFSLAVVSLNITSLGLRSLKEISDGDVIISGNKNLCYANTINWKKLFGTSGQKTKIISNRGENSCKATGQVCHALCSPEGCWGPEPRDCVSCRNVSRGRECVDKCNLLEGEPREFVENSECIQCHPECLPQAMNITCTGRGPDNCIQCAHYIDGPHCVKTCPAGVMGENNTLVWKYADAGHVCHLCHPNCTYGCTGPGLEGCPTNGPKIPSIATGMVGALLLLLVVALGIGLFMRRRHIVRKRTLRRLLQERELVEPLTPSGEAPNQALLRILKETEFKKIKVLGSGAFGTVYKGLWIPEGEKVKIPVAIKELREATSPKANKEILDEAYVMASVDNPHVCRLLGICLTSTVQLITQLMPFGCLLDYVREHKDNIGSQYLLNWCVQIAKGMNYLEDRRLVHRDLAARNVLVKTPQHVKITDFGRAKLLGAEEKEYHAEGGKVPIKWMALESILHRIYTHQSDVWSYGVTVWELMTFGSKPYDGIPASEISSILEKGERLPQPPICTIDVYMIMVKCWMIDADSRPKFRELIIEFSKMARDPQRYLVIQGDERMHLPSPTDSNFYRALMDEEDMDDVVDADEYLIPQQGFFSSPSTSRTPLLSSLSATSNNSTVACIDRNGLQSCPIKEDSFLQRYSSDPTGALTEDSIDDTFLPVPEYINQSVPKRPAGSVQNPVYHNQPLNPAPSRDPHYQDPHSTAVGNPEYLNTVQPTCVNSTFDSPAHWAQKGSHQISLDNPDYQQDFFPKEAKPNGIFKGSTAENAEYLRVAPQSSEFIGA
Chain of EGFR L858R/T790M (P00533 25-1210 T790M/L858R): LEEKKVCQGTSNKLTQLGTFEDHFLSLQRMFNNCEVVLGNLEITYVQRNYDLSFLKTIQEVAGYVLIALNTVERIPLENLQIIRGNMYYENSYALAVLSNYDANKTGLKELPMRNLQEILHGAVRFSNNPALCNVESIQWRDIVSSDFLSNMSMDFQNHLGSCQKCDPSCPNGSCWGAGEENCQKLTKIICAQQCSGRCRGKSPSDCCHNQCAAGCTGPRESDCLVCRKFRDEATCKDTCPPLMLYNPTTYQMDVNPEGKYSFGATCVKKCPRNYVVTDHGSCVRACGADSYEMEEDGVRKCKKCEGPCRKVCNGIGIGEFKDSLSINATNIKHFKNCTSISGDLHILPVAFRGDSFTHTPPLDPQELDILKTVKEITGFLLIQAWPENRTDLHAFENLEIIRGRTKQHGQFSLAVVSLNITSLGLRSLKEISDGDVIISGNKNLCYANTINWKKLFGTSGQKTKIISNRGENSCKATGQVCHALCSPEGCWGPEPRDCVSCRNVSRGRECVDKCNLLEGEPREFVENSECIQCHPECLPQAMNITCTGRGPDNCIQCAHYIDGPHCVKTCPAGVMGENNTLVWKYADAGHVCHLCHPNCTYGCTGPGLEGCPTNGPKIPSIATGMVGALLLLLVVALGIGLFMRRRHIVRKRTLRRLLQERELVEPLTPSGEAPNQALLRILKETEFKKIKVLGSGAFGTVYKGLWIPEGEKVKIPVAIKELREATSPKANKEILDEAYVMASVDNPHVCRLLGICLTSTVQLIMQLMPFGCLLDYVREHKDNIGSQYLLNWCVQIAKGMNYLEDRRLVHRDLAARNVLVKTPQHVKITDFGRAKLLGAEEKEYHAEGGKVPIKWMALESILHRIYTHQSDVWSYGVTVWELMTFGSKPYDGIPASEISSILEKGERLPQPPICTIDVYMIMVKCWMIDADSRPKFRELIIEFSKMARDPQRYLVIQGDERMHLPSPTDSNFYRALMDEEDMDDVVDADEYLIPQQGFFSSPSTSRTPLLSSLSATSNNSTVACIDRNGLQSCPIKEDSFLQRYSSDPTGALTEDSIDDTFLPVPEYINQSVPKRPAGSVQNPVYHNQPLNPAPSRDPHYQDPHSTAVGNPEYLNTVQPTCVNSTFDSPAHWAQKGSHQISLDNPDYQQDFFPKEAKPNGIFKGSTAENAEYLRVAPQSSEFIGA

Regarding `CN1CCC(c2ccc(-c3cc(F)c4c(=O)n(C(C(=O)Nc5nccs5)c5ncn6c5CCC6)ccc4c3)cc2)CC1` (centres unmarked) [Compound 001, 2-(6,7-Dihydro-5H-pyrrolo[1,2-c]imidazol-1-yl)-2-(8-fluoro-6-(4-(1-methylpiperidin-4-yl)phenyl)-1-oxoisoquinolin-2(1H)-yl)-N-(thiazol-2-yl)acetamide], the IC50 in assay [1] is under 0.5 nM; in assay [2] it was under 5 nM. In addition, the GI50 in assay [3] is under 500 nM; in assay [4] it was under 100 nM.
As to `CN1CCC(c2ccc(-c3cc(F)c4c(=O)n(C(C(=O)Nc5nccs5)c5ncn6c5C[C@@H](F)C6)ccc4c3)cc2)CC1` (stereo partly drawn) [Compound 002, 2-((R)-6-Fluoro-6,7-dihydro-5H-pyrrolo[1,2-c]imidazol-1-yl)-2-(8-fluoro-6-(4-(1-methylpiperidin-4-yl)phenyl)-1-oxoisoquinolin-2(1H)-yl)-N-(thiazol-2-yl)acetamide], the values for the IC50 in assay [1] and in assay [2] were under 1 nM and under 5 nM, respectively. Also, the GI50 in assay [3] and in assay [4] was under 500 nM each time.
For the compound `CN1CCC(c2ccc(-c3cc4ccn(C(C(=O)Nc5nccs5)c5ncn6c5CCC6)c(=O)c4s3)cc2)CC1` (centres unmarked) [Compound 003, 2-(6,7-Dihydro-5H-pyrrolo[1,2-c]imidazol-1-yl)-2-(2-(4-(1-methylpiperidin-4-yl)phenyl)-7-oxothieno[2,3-c]pyridin-6(7H)-yl)-N-(thiazol-2-yl)acetamide], the IC50 in assay [1] is under 0.5 nM; in assay [2], under 5 nM. The GI50 in assay [3] was under 500 nM; in assay [4] it was under 100 nM.
`CN1CCC(c2ccc(-c3cc4ccn(C(C(=O)Nc5nccs5)c5ncn6c5C[C@@H](F)C6)c(=O)c4s3)cc2)CC1` (stereo partly drawn) [Compound 004, 2-((R)-6-Fluoro-6,7-dihydro-5H-pyrrolo[1,2-c]imidazol-1-yl)-2-(2-(4-(1-methylpiperidin-4-yl)phenyl)-7-oxothieno[2,3-c]pyridin-6(7H)-yl)-N-(thiazol-2-yl)acetamide]: the IC50 is under 0.5 nM in assay [1] and under 5 nM in assay [2]. Also, the GI50 was under 5000 nM in assay [3] and under 500 nM in assay [4].
With `CN1CCC(c2ccc(-c3ccc4ncn(C(C(=O)Nc5nccs5)c5ncn6c5CCC6)c(=O)c4c3)cc2)CC1` (centres unmarked) [Compound 005, 2-(6,7-Dihydro-5H-pyrrolo[1,2-c]imidazol-1-yl)-2-(6-(4-(1-methylpiperidin-4-yl)phenyl)-4-oxoquinazolin-3(4H)-yl)-N-(thiazol-2-yl)acetamide], the IC50 in assay [1] is under 0.5 nM; in assay [2] it was under 1 nM. Besides, the results for the GI50 in assay [3] and in assay [4] were under 500 nM and under 100 nM, respectively.
Consider `CN1CCC(c2ccc(-c3ccc4ncn(C(C(=O)Nc5nccs5)c5ncn6c5CCC6)c(=O)c4c3F)cc2)CC1` (centres unmarked) [Compound 006, 2-(6,7-Dihydro-5H-pyrrolo[1,2-c]imidazol-1-yl)-2-(5-fluoro-6-(4-(1-methylpiperidin-4-yl)phenyl)-4-oxoquinazolin-3(4H)-yl)-N-(thiazol-2-yl)acetamide], for which the IC50 is under 0.5 nM in assay [1] and under 5 nM in assay [2]. Moreover, the GI50 is under 500 nM in assay [3] and under 100 nM in assay [4].
Turning to `CN1CCN(c2ccc(-c3ccc4ncn(C(C(=O)Nc5nccs5)c5ncn6c5CCC6)c(=O)c4c3)cc2)CC1` (centres unmarked) [Compound 007, 2-(6,7-Dihydro-5H-pyrrolo[1,2-c]imidazol-1-yl)-2-(6-(4-(4-methylpiperazin-1-yl)phenyl)-4-oxoquinazolin-3(4H)-yl)-N-(thiazol-2-yl)acetamide], the IC50 is under 5 nM in assay [1] and over 5 nM in assay [2]. In addition, the GI50 in assay [3] and in assay [4] was under 5000 nM throughout.
Take `CN1CCC(c2ccc(-c3ccc4c(c3)C(=O)N(C(C(=O)Nc3nccs3)c3ncn5c3CCC5)CO4)cc2)CC1` (centres unmarked) [Compound 008, 2-(6,7-Dihydro-5H-pyrrolo[1,2-c]imidazol-1-yl)-2-(6-(4-(1-methylpiperidin-4-yl)phenyl)-4-oxo-2H-benzo[e][1,3]oxazin-3(4H)-yl)-N-(thiazol-2-yl)acetamide]: the IC50 was under 0.5 nM in assay [1] and under 5 nM in assay [2]. Also, the values for the GI50 in assay [3] and in assay [4] were under 500 nM and under 100 nM, respectively.
